Results as given in patent publication US7713994B2 (Wyeth LLC, priority 2005, dated 2010).
Like-named read-outs stand apart in the source and are kept apart here.

Key:
[1] = test system: HCT-116; experiment: Cytotoxicity assay (SRB), HCT-116; format: cell-based; details: Homo sapiens, HCT-116, 72 h, read-out: In Vitro Cellular Activity IC50 HCT116
Method in brief: (§1)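 Overnight-seeded monolayers (4000–12000 cells/well by line) receive compound in 5% FBS medium at 37 °C, 7% CO2. After 3 d, or 6 d for BT474, cellular protein is fixed with cold TCA, stained with SRB and read at 540 nm against untreated wells.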

[2] = test system: MCF-7; experiment: Cytotoxicity assay (SRB), MCF-7; format: cell-based; details: Homo sapiens, MCF7, 72 h, read-out: In Vitro Cellular Activity IC50 MCF-7
Method in brief: as §1

[3] = test system: BT474; experiment: Cytotoxicity assay (SRB), BT474; format: cell-based; details: Homo sapiens, BT-474, 144 h, read-out: In Vitro Cellular Activity IC50 BT474
Method in brief: as §1

[4] = molecular target: T1, cyclin E/CDK2 enzyme (Homo sapiens, UniProt P24941); experiment: CDK2 ELISA kinase assay (phospho-Rb ser 795 detection); format: biochemical
T1 construct: made in house; host or cells: Sf9 insect cells, recombinant baculovirus
Method in brief: (§2)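 Wells were coated overnight with GST-Rb C-terminal fragment, then blocked. Compound (10 ug/ml final) and cyclin/CDK enzyme from baculovirus-infected Sf9 cells with 200 μM ATP reacted 1 h at 30° C. Ser795 phosphorylation was detected by ELISA at 450 nm.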

[5] = molecular target: T2, cyclin B/CDK1 enzyme (Homo sapiens, UniProt P06493); experiment: CDK1 ELISA kinase assay (phospho-Rb ser 795 detection); format: biochemical
T2 construct: purchased New England BioLabs; host or cells: Sf9 insect cells, recombinant baculovirus
T2 sequence (P06493 whole entry): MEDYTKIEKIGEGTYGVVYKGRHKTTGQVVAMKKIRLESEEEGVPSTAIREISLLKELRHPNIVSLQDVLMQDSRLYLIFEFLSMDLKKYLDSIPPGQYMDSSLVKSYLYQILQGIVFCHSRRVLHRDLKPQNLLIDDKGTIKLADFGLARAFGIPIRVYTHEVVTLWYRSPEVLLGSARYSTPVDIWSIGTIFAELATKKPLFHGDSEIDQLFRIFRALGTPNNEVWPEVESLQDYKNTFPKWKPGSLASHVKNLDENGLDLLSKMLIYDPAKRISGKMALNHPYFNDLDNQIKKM
T2 sequence (P14635 whole entry partner): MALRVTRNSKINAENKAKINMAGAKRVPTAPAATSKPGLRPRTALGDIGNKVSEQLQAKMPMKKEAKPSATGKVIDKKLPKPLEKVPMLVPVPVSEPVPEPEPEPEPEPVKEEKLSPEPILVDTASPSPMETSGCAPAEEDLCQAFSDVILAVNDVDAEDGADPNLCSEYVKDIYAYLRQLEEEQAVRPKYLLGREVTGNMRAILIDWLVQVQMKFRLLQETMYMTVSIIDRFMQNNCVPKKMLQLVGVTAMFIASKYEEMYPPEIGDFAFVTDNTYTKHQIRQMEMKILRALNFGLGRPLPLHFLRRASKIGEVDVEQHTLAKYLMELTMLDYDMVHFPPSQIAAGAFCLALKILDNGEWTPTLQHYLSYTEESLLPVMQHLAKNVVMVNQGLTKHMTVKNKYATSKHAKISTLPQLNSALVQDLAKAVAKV
Method in brief: as §2

[6] = molecular target: T3, cyclin D1/cdk 4 enzyme (Homo sapiens, UniProt P11802); experiment: CDK4 ELISA kinase assay (phospho-Rb ser 795 detection); format: biochemical
T3 construct: made in house; host or cells: Sf9 insect cells, recombinant baculovirus
T3 sequence (P11802 whole entry, species assumed): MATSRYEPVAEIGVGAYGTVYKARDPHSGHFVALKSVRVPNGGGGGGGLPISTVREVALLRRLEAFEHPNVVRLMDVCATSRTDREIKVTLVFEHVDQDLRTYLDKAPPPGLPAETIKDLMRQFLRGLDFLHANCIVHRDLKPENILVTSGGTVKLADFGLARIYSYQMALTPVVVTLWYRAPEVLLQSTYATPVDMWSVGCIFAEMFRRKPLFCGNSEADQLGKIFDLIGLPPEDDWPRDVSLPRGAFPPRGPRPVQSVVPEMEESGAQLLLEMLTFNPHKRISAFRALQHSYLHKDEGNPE
T3 sequence (P24385 whole entry partner, species assumed): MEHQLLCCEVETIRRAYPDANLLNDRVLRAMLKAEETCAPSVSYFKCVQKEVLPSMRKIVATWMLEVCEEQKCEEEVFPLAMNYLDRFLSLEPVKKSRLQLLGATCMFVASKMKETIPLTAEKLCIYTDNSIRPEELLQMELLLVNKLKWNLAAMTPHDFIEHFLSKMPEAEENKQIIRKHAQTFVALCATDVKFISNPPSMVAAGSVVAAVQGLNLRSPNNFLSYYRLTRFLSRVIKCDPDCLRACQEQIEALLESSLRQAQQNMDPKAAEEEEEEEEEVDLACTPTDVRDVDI
Method in brief: as §2

[7] = test system: LoVo; experiment: Cytotoxicity assay (SRB), LoVo; format: cell-based; details: Homo sapiens, LoVo, 72 h, read-out: In Vitro Cellular Activity IC50 LOVO
Method in brief: as §1

[8] = In Vitro Enzyme Assays, read-out: CDK2 IC50
[9] = In Vitro Enzyme Assays, read-out: CDK1 IC50
[10] = In Vitro Enzyme Assays, 200 μM ATP, read-out: CDK4 IC50
[11] = In Vitro Enzyme Assay, cyclin E/CDK2, read-out: CDK2 IC50
[12] = In Vitro Enzyme Assay, cyclin B/CDK1, read-out: CDK1 IC50
[13] = In Vitro Enzyme Assay, cyclin D1/cdk 4, read-out: CDK4 IC50

| IC50 [4, 8] | IC50 [5, 9] | IC50 [6, 10] | melting point | Structure (SMILES) | further results |
| --- | --- | --- | --- | --- | --- |
| 3.3 µM | > 50 µM | 0.002 µM | 265 to 266 °C | COc1cc(CN/C=C2\C(=O)NC(=O)c3ccc(I)cc32)cc(O)c1OC [Example 89, (4Z)-6-Iodo-4-{[(3-hydroxy-4,5-dimethoxybenzyl)amino)methylene}isoquinoline-1,3(2H,4H)-dione] | IC50 ([1]; HCT116 cells, SRB, three days): 3.7 µM; IC50 ([2]; MCF-7 cells, SRB, three days): 20 µM; IC50 ([3]; BT474 cells, SRB, 6 days): 5.9 µM; IC50 ([7]; LoVo cells, SRB, three days): 7.8 µM |
| – | – | – | 185 to 186 °C | COC[C@@H]1CCCN1Cc1ccc(N/C=C2\C(=O)NC(=O)c3ccc(I)cc32)nc1 [Example 478, (4Z)-6-Iodo-4-{[(5-{[(2S)-2-(methoxymethyl)pyrrolidin-1-yl]methyl}pyridin-2-yl)amino]methylene}isoquinoline-1,3(2H,4H)-dione] | IC50 ([1]; HCT116 cells, 3 days, SRB): 24.2 µM; IC50 ([2]; MCF-7 cells, 3 days, SRB): 44.8 µM; IC50 ([3]; BT474 cells, 6 days, SRB): > 50 µM; IC50 [4, 11]: > 50 µM; IC50 [5, 12]: > 50 µM; IC50 [6, 13]: 17.6 µM; IC50 ([7]; LoVo cells, 3 days, SRB): 46.8 µM |
| – | – | – | 245 to 246 °C | CN1CCN(c2ccc(N/C=C3\C(=O)NC(=O)c4ccc(Br)cc43)nn2)CC1 [Example 477, (4Z)-6-Bromo-4-({[6-(4-methylpiperazin-1-yl)pyridazin-3-yl]amino}methylene)isoquinoline-1,3(2H,4H)-dione] | IC50 ([1]; HCT116 cells, 3 days, SRB): 1.6 µM; IC50 ([2]; MCF-7 cells, 3 days, SRB): 2.3 µM; IC50 ([3]; BT474 cells, 6 days, SRB): 4.1 µM; IC50 [4, 11]: 40.6 µM; IC50 [5, 12]: 24.2 µM; IC50 [6, 13]: 13.8 µM; IC50 ([7]; LoVo cells, 3 days, SRB): 3.9 µM |
| 41.5 µM | > 50 µM | 6 µM | 179 to 180 °C | COC(=O)Nc1ccc(CN/C=C2\C(=O)NC(=O)c3ccc(Br)cc32)cc1OC(=O)OC [Example 184, 5-({[(Z)-(6-Bromo-1,3-dioxo-2,3-dihydroisoquinolin-4(1H)-′ylidene)methyl]amino}methyl)-2-[(methoxycarbonyl)amino]phenyl methyl carbonate] | IC50 ([1]; HCT116 cells, SRB, three days): 13 µM; IC50 ([2]; MCF-7 cells, SRB, three days): 50 µM; IC50 ([3]; BT474 cells, SRB, 6 days): 8.5 µM; IC50 ([7]; LoVo cells, SRB, three days): 20 µM |
| – | – | – | 256 to 257 °C | CCN1CCN(c2ccc(N/C=C3\C(=O)NC(=O)c4ccc(-c5ccoc5)cc43)nc2)CC1 [Example 481, (4Z)-4-({[5-(4-Ethylpiperazin-1-yl)pyridin-2-yl]amino}methylene)-6-(3-furyl)isoquinoline-1,3(2H,4H)-dione] | IC50 ([1]; HCT116 cells, 3 days, SRB): 0.88 µM; IC50 ([2]; MCF-7 cells, 3 days, SRB): 1.1 µM; IC50 ([3]; BT474 cells, 6 days, SRB): 0.6 µM; IC50 [4, 11]: > 50 µM; IC50 [5, 12]: > 50 µM; IC50 [6, 13]: 0.19 µM; IC50 ([7]; LoVo cells, 3 days, SRB): 0.96 µM |
| 1.9 µM | 31.7 µM | 0.12 µM | 236 to 237 °C | CCCNc1ccc(CN/C=C2\C(=O)NC(=O)c3ccc(I)cc32)cc1O [Example 366, (4Z)-4-({[3-Hydroxy-4-(propylamino)benzyl]amino}methylene)-6-iodoisoquinoline-1,3(2H,4H)-dione] | IC50 ([1]; HCT116 cells, SRB, three days): 3.3 µM; IC50 ([2]; MCF-7 cells, SRB, three days): 6.9 µM; IC50 ([3]; BT474 cells, SRB, 6 days): 3.8 µM; IC50 ([7]; LoVo cells, SRB, three days): 2.8 µM |
| 6.7 µM | > 50 µM | 0.08 µM | 245 to 246 °C | Nc1ccc(CN/C=C2\C(=O)NC(=O)c3ccc(Br)cc32)cc1O [Example 227, (4Z)-4-{[(4-Amino-3-hydroxybenzyl)amino]methylene}-6-bromoisoquinoline-1,3(2H,4H)-dione] | IC50 ([1]; HCT116 cells, SRB, three days): 44 µM; IC50 ([2]; MCF-7 cells, SRB, three days): > 50 µM; IC50 ([7]; LoVo cells, SRB, three days): 37 µM |
| 11 µM | > 50 µM | 43.4 µM | > 300 °C (dec.) | O=C1NC(=O)c2ccc(Br)cc2C1=CNc1ccc(-c2c[nH]cn2)cc1 [Example 164, 6-Bromo-4-{[4-(1H-imidazol-4-yl)-phenylamino]-methylene}-4H-isoquinolin-1,3-dione] | – |
| 4.5 µM | > 50 µM | 31.1 µM | 296 to 297 °C | O=C1NC(=O)c2ccc(Br)cc2/C1=C/NCc1ccc(O)cc1 [Example 62] | – |
| 31 µM | 43.4 µM | 0.19 µM | 230 to 240 °C (dec.) | O=C(O)CCCN/C=C1\C(=O)NC(=O)c2ccc(-n3cccc3)cc21 [Example 315, (Z)-4-((1,3-Dioxo-6-(1H-pyrrol-1-yl)-2,3-dihydroisoquinolin-4(1H)-ylidene)methylamino)butanoic acid] | – |
| 39.7 µM | > 50 µM | 35.5 µM | 250 to 253 °C | CC(N)(C(=O)O)c1ccc(NC=C2C(=O)NC(=O)c3ccc(Br)cc32)cc1 (centres unmarked) [Example 277, 2-Amino-2-{4-[(6-bromo-1,3-dioxo-2,3-dihydro-1H-isoquinolin-4-ylidenemethyl)-amino]-phenyl}-propionic acid] | – |
| > 50 µM | > 50 µM | 0.13 µM | 262 to 263 °C | CN1CCN(c2ccc(N/C=C3\C(=O)NC(=O)c4ccc(-c5ccoc5)cc43)nc2)CC1 [Example 443, (4Z)-6-(3-Furyl)-4-({[5-(4-methylpiperazin-1-yl)pyridin-2-yl]amino}methylene)isoquinoline-1,3(2H,4H)-dione] | IC50 ([3]; BT474 cells, 6 days, SRB): 0.65 µM; IC50 ([7]; LoVo cells, 3 days, SRB): 0.85 µM |
| > 50 µM | > 50 µM | 14.8 µM | 273 to 274 °C | COc1cc2c(cc1OC)/C(=C/Nc1ccc(N3CCN(C)CC3)cc1)C(=O)NC2=O [Example 37, (4Z)-6,7-Dimethoxy-4-({[4-(-methylpiperazin-1-yl)phenyl}amino)methylene] isoquinolin-1,3(2H,4H)-dione] | – |
| 19.4 µM | 31.8 µM | 12.4 µM | 336 to 337 °C | O=C1NC(=O)c2ccc(Br)cc2/C1=C/Nc1ccc(O)c(C(=O)O)c1 [Example 58, 5-{[(Z)-(6-Bromo-1,3-dioxo-2,3-dihydroisoquinolin-4(1H)-ylidene)methyl]amino}-2-hydroxybenzoic acid] | – |
| > 50 µM | > 50 µM | 12.3 µM | 233 to 234 °C | CCCOc1ccc(CN/C=C2\C(=O)NC(=O)c3ccc(NC(=O)c4ccco4)cc32)cc1O [Example 197] | – |
| 37.1 µM | > 50 µM | 1.5 µM | 260 to 262 °C (dec.) | O=C(O)CCCN/C=C1\C(=O)NC(=O)c2ccc(Br)cc21 [Example 314, (Z)-4-((6-Bromo-1,3-dioxo-2,3-dihydroisoquinolin-4(1H)-ylidene)methylamino)butanoic acid] | – |

| Structure (SMILES) | IC50 [4, 8] | IC50 [5, 9] | IC50 [6, 10] | melting point | further results |
| --- | --- | --- | --- | --- | --- |
| CN1CCN(c2ccc(N/C=C3\C(=O)NC(=O)c4ccc(C(=O)N(C)C)cc43)cc2)CC1 [Example 65, (4Z)-N,N-Dimethyl-4-({[4-(4-methylpiperazin-1-yl)phenyl]amino}methylene)-1,3-dioxo-1,2,3,4-tetrahydroisoquinoline-6-carboxamide] | 47 µM | > 50 µM | 41 µM | > 300 °C | – |
| CCN(CC)C(=O)Oc1cc(CN/C=C2\C(=O)NC(=O)c3ccc(I)cc32)ccc1OC [Example 99, 5-({[(Z)-(6-Iodo-1,3-dioxo-2,3-dihydroisoquinolin-4(1H)-ylidene)methyl]amino}methyl)-2-methoxyphenyl diethylcarbamate] | – | – | – | 128 to 130 °C | IC50 ([4]; CDK2 IC50, In Vitro Enzyme Assays): > 50 µM; IC50 ([5]; CDK1 IC50, In Vitro Enzyme Assays): > 50 µM; IC50 ([6]; CDK4 IC50, In Vitro Enzyme Assays, 200 μM ATP): 1.4 µM |
| CC(C)(C)c1ccc2c(c1)/C(=C/NCc1cc(O)c(-c3ccoc3)cn1)C(=O)NC2=O [Example 532, 6-tert-Butyl-4-{[(5-furan-3-yl-4-hydroxy-pyridin-2-ylmethyl)-amino]-methylene}-4H-isoquinoline-1,3-dione] | – | – | – | 215 to 230 °C (dec.) | IC50 [1]: 0.48 µM; IC50 [2]: 1.4 µM; IC50 [3]: 0.1 µM; IC50 [4, 11]: 1.9 µM; IC50 [7]: 0.27 µM |
| CC(=O)Nc1ccc2c(c1)/C(=C/Nc1ccc(CN3CCCCC3)cc1)C(=O)NC2=O [Example 48] | 8.1 µM | > 50 µM | – | > 320 °C | – |
